Data taken from patent publication US20190071416A1, “COMPOUNDS FOR TREATMENT OF CANCER AND EPIGENETICS” (Agency For Science, Technology and Research, priority 2015, published 2019).

biological target: T1, SMYD3 (Homo sapiens, UniProt Q9H7B4); experiment: SMYD3 biochemical assay (MTase-Glo, MAP3K2 peptide substrate); conditions: Table 3; MTase assay, MAP3K2 peptide substrate; read-out: IC50
T1 sequence (Q9H7B4 1-428): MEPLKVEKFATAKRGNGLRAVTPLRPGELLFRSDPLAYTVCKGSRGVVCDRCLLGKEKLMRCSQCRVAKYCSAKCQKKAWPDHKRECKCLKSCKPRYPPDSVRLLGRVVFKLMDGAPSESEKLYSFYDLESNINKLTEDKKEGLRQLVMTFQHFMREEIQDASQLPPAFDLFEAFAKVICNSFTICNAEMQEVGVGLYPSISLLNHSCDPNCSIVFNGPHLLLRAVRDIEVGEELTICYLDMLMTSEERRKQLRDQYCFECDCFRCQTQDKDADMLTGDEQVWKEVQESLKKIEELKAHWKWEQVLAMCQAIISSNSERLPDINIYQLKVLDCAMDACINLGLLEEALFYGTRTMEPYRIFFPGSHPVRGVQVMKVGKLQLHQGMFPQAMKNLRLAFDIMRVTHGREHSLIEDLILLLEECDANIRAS
In short: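 Methylation of MAP3K2 peptide (10 µM final) with SAM (1.0 µM final) by SMYD3, 30 min at room temperature. SAH formed was enzymatically converted to ATP and detected as luminescence with MTase-Glo reagents; IC50 by non-linear regression.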

Row | IC50 [nM] | SMILES
1 | 510 | CCCOC(=O)N1CCN(C(=O)c2ccc3c(Cl)c4c(nc3c2)CC(c2ccnc(CN)c2)CC4)CC1 (centres unmarked) [A144, Propyl 4-(6-(2-(aminomethyl)pyridin-4-yl)-9-chloro-5,6,7,8-tetrahydroacridine-3-carbonyl)piperazine-1-carboxylate]
2 | 220 | CCCOC(=O)N1CCN(C(=O)c2ccc3c(Cl)c4c(nc3c2)CC(c2ccnc(C(N)=O)c2)CC4)[C@@H](C)C1 (stereo partly drawn) [A145, Propyl (3S)-4-(6-(2-carbamoylpyridin-4-yl)-9-chloro-5,6,7,8-tetrahydroacridine-3-carbonyl)-3-methylpiperazine-1-carboxylate]
3 | 560 | C=CCC1CCCc2c1nc1cc(C(=O)N3CCN(C(=O)OCCC)CC3)ccc1c2Cl (centres unmarked) [A146, Propyl 4-(5-allyl-9-chloro-5,6,7,8-tetrahydroacridine-3-carbonyl)piperazine-1-carboxylate]
4 | 300 | CCCOC(=O)N1CCN(C(=O)c2ccc3c(Cl)c4c(nc3c2)CC(c2ccnc(C#N)n2)CC4)CC1 (centres unmarked) [A148, Propyl 4-(9-chloro-6-(2-cyanopyrimidin-4-yl)-5,6,7,8-tetrahydroacridine-3-carbonyl)piperazine-1-carboxylate]
5 | 260 | C#Cc1ccc(C2CCc3c(nc4cc(C(=O)N5CCN(C(=O)OCCC)[C@H](C)C5)ccc4c3Cl)C2)nc1 (stereo partly drawn) [A149, Propyl (2R)-4-(9-chloro-6-(5-ethynylpyridin-2-yl)-5,6,7,8-tetrahydroacridine-3-carbonyl)-2-methylpiperazine-1-carboxylate]
6 | 260 | C#Cc1ccc(C2CCc3c(nc4cc(C(=O)N5CCN(C(=O)OCCC)C[C@@H]5C)ccc4c3Cl)C2)nc1 (stereo partly drawn) [A150, Propyl (3S)-4-(9-chloro-6-(5-ethynylpyridin-2-yl)-5,6,7,8-tetrahydroacridine-3-carbonyl)-3-methylpiperazine-1-carboxylate]
7 | 46 | CCCOC(=O)N1CCN(C(=O)c2ccc3c(Cl)c4c(nc3c2)CC(c2cnn(C)c2)CC4)CC1 (centres unmarked) [A151, Propyl 4-(9-chloro-6-(1-methyl-1H-pyrazol-4-yl)-5,6,7,8-tetrahydroacridine-3-carbonyl)piperazine-1-carboxylate]
8 | 160 | CCCOC(=O)N1CCN(C(=O)c2ccc3c(Cl)c(C)c(-c4ccccc4)nc3c2)C[C@@H]1C [B006, Propyl (S)-4-(4-chloro-3-methyl-2-phenylquinoline-7-carbonyl)-2-methylpiperazine-1-carboxylate]
9 | 220 | CCCOC(=O)N1CCN(C(=O)c2ccc3c(Cl)c(C)c(-c4ccccc4)nc3c2)C[C@H]1C [B007, Propyl (R)-4-(4-chloro-3-methyl-2-phenylquinoline-7-carbonyl)-2-methylpiperazine-1-carboxylate]
10 | 170 | CCCOC(=O)N1CCN(C(=O)c2ccc3c(Cl)cc(-c4ccccc4)nc3c2)[C@@H](C)C1 [B014, Propyl (S)-4-(4-chloro-2-phenylquinoline-7-carbonyl)-3-methylpiperazine-1-carboxylate]
11 | 190 | CCCOC(=O)N1CCN(C(=O)c2ccc3c(Cl)cc(-c4ccccc4)nc3c2)[C@H](C)C1 [B015, Propyl (R)-4-(4-chloro-2-phenylquinoline-7-carbonyl)-3-methylpiperazine-1-carboxylate]
12 | 150 | CCCOC(=O)N1CCN(C(=O)c2ccc3c(Cl)c(C)c(-c4ccccc4)nc3c2)[C@@H](C)C1 [B016, Propyl (S)-4-(4-chloro-3-methyl-2-phenylquinoline-7-carbonyl)-3-methylpiperazine-1-carboxylate]
13 | 300 | CCCOC(=O)N1CCN(C(=O)c2ccc3c(Cl)c(C)c(-c4ccccc4)nc3c2)[C@H](C)C1 [B017, Propyl (R)-4-(4-chloro-3-methyl-2-phenylquinoline-7-carbonyl)-3-methylpiperazine-1-carboxylate]
14 | 130 | CCCOC(=O)N1CCN(C(=O)c2ccc3c(Cl)cc(-c4ccccc4)nc3c2)C[C@@H]1C [B018, Propyl (S)-4-(4-chloro-2-phenylquinoline-7-carbonyl)-2-methylpiperazine-1-carboxylate]
15 | 690 | CCCOC(=O)N1CCN(C(=O)c2ccc3c(Cl)c(C)c(-c4ccc(C)cc4)nc3c2)[C@H](C)C1 [B023, Propyl (R)-4-(4-chloro-3-methyl-2-(p-tolyl)quinoline-7-carbonyl)-3-methylpiperazine-1-carboxylate]
16 | 670 | CCCOC(=O)N1CCN(C(=O)c2ccc3c(Cl)c(C)c(-c4ccc(C)cc4)nc3c2)[C@@H](C)C1 [B024, Propyl (S)-4-(4-chloro-3-methyl-2-(p-tolyl)quinoline-7-carbonyl)-3-methylpiperazine-1-carboxylate]
17 | 270 | CCCOC(=O)N1CCN(C(=O)c2ccc3c(Cl)c(C)c(-c4ccc(OC)cc4)nc3c2)[C@@H](C)C1 [B026, Propyl (S)-4-(4-chloro-2-(4-methoxyphenyl)-3-methylquinoline-7-carbonyl)-3-methylpiperazine-1-carboxylate]
18 | 1200 | CCCOC(=O)N1CCN(C(=O)c2ccc3c(Cl)c(C)c(-c4ccccc4C)nc3c2)CC1 [B027, Propyl 4-(4-chloro-3-methyl-2-(o-tolyl)quinoline-7-carbonyl)piperazine-1-carboxylate]

Second part, the molecule before the results:

Row | SMILES | IC50 [nM]
19 | CCCOC(=O)N1CCN(C(=O)c2ccc3c(Cl)cc(-c4cccnc4)nc3c2)CC1 [B001, Propyl 4-(4-chloro-2-(pyridin-3-yl)quinoline-7-carbonyl)piperazine-1-carboxylate] | 2400
20 | CCCOC(=O)N1CCN(C(=O)c2ccc3c(Cl)cc(-c4ccccc4)nc3c2)CC1 [B002, Propyl 4-(4-chloro-2-phenylquinoline-7-carbonyl)piperazine-1-carboxylate] | 410
21 | CCCOC(=O)N1CCN(C(=O)c2ccc3c(Cl)c(CC)c(-c4ccccc4)nc3c2)CC1 [B004, Propyl 4-(4-chloro-3-ethyl-2-phenylquinoline-7-carbonyl)piperazine-1-carboxylate] | 1400
22 | CCCOC(=O)N1CCN(C(=O)c2ccc3c(Cl)cc(-c4cncc(C)c4)nc3c2)CC1 [B005, Propyl 4-(4-chloro-2-(5-methylpyridin-3-yl)quinoline-7-carbonyl)piperazine-1-carboxylate] | 2500
23 | CCCOC(=O)N1CCN(C(=O)c2ccc3c(Cl)cc(-c4ccccn4)nc3c2)CC1 [B008, Propyl 4-(4-chloro-2-(pyridin-2-yl)quinoline-7-carbonyl)piperazine-1-carboxylate] | 1400
24 | CCCOC(=O)N1CCN(C(=O)c2ccc3c(Cl)cc(Cc4ccccc4)nc3c2)CC1 [B009, Propyl 4-(2-benzyl-4-chloroquinoline-7-carbonyl)piperazine-1-carboxylate] | 3300
25 | CCCOC(=O)N1CCN(C(=O)c2ccc3c(Cl)cc(-c4ccc(C)cc4)nc3c2)CC1 [B010] | 500
26 | CCCOC(=O)N1CCN(C(=O)c2ccc3c(Cl)cc(-c4cccc(C)c4)nc3c2)CC1 [B011, Propyl 4-(4-chloro-2-(m-tolyl)quinoline-7-carbonyl)piperazine-1-carboxylate] | 770
27 | CCCOC(=O)N1CCN(C(=O)c2ccc3c(Cl)cc(-c4ccccc4C)nc3c2)CC1 [B012, Propyl 4-(4-chloro-2-(o-tolyl)quinoline-7-carbonyl)piperazine-1-carboxylate] | 2900
28 | CCCOC(=O)N1CCN(C(=O)c2ccc3c(Cl)cc(-c4ccncc4)nc3c2)CC1 [B013, Propyl 4-(4-chloro-2-(pyridin-4-yl)quinoline-7-carbonyl)piperazine-1-carboxylate] | 950
29 | CCCOC(=O)N1CCN(C(=O)c2ccc3c(Cl)c(C)c(-c4ccc(C(F)(F)F)cc4)nc3c2)CC1 [B020, Propyl 4-(4-chloro-3-methyl-2-(4-(trifluoromethyl)phenyl)quinoline-7-carbonyl)piperazine-1-carboxylate] | 3200
30 | CCCOC(=O)N1CCN(C(=O)c2ccc3c(Cl)c(C)c(-c4ccc(Cl)cc4)nc3c2)CC1 [B021, Propyl 4-(4-chloro-2-(4-chlorophenyl)-3-methylquinoline-7-carbonyl)piperazine-1-carboxylate] | 1300
31 | CCCOC(=O)N1CCN(C(=O)c2ccc3c(Cl)c(C)c(-c4ccc(F)cc4)nc3c2)CC1 [B022, Propyl 4-(4-chloro-2-(4-fluorophenyl)-3-methylquinoline-7-carbonyl)piperazine-1-carboxylate] | 850
32 | CCCOC(=O)N1CCN(C(=O)c2ccc3c(Cl)c(C)c(-c4ccc(C)cc4)nc3c2)CC1 [B025, Propyl 4-(4-chloro-3-methyl-2-(p-tolyl)quinoline-7-carbonyl)piperazine-1-carboxylate] | 670
33 | CCCOC(=O)N1CCN(C(=O)c2ccc3c(Cl)c(C)c(-c4cccc(C)c4)nc3c2)CC1 [B028, Propyl 4-(4-chloro-3-methyl-2-(m-tolyl)quinoline-7-carbonyl)piperazine-1-carboxylate] | 1100
34 | CCCOC(=O)N1CCN(C(=O)c2ccc3c(Cl)c(C)c(-c4cccc(OC)c4)nc3c2)CC1 [B029, Propyl 4-(4-chloro-2-(3-methoxyphenyl)-3-methylquinoline-7-carbonyl)piperazine-1-carboxylate] | 1400
35 | CCCOC(=O)N1CCN(C(=O)c2ccc3c(Cl)c(C)c(-c4cccc(F)c4F)nc3c2)CC1 [B030, Propyl 4-(4-chloro-2-(2,3-difluorophenyl)-3-methylquinoline-7-carbonyl)piperazine-1-carboxylate] | 5800
